Like-named read-outs stand apart in the source and are kept apart here.
What was measured:
[1] = target: human Gal-3 (hGal-3) (Homo sapiens (Human), UniProt P17931); assay: competitive binding assay: biotinylated hGal-3 binding to microplate-adsorbed asialofetuin (ASF)
In short: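 Serial DMSO dilutions of each compound; binding incubation of 3 hours at 4 °C with cold-buffer washes; detection using 80 ng/mL streptavidin-peroxidase for 1 hour, then ABTS. Multiple determinations were averaged to give the IC50.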

[2] = target: human Gal-1 (hGal-1) (Homo sapiens (Human), UniProt P09382); assay: competitive binding assay: biotinylated hGal-1 binding to microplate-adsorbed asialofetuin (ASF); details: Table 15; read-out: IC50 (Galectin-1 inhibition)
In short: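 Spectrophotometric competition readout: after compound and biotinylated hGal-1 (300-1000 ng/mL) sit 3 h at 4° C on adsorbed asialofetuin, streptavidin-peroxidase (1 h, 4° C) and ABTS reveal residual binding. Reported IC50 values are means of repeat runs.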

[3] = Gal-3 inhibition, binding of biotinylated hGal-3 to ASF, mean values, read-out: IC50
[4] = Table 5, read-out: IC50 (Gal-3 inhibition)

Sequence of human Gal-3 (hGal-3) (P17931 whole entry): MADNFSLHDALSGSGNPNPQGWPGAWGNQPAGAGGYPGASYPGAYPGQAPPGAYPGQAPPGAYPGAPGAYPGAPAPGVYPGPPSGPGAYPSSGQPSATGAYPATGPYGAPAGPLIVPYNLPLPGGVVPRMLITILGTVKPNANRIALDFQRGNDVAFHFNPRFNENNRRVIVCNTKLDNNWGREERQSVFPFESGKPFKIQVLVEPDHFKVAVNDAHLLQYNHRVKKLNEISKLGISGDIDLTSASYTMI
Sequence of human Gal-1 (hGal-1) (P09382 whole entry): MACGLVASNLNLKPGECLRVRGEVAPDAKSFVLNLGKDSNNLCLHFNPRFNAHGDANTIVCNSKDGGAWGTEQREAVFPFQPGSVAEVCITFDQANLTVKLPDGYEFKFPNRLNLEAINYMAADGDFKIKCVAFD

Row | SMILES | IC50 [1, 3] [µM] | IC50 [2] [µM] | IC50 [1, 4] [µM]
1 | Cc1conc1[C@@H](S[C@@H]1O[C@H](CO)[C@H](O)[C@H](n2cc(-c3cc(F)c(F)c(F)c3)nn2)[C@H]1O)C(C)(C)O [Example 2.31.120R., (2S,3R,4S,5R,6R)-2-(((R)-2-Hydroxy-2-methyl-1-(4-methylisoxazol-3-yl)propyl)thio)-6-(hydroxymethyl)-4-(4-(3,4,5-trifluorophenyl)-1H-1,2,3-triazol-1-yl)tetrahydro-2H-pyran-3,5-diol] | 0.32 | 1.8 | 
2 | Cc1conc1[C@H](S[C@@H]1O[C@H](CO)[C@H](O)[C@H](n2cc(-c3cc(F)c(F)c(F)c3)nn2)[C@H]1O)C(C)(C)O [Example 2.31.120S., (2S,3R,4S,5R,6R)-2-(((S)-2-Hydroxy-2-methyl-1-(4-methylisoxazol-3-yl)propyl)thio)-6-(hydroxymethyl)-4-(4-(3,4,5-trifluorophenyl)-1H-1,2,3-triazol-1-yl)tetrahydro-2H-pyran-3,5-diol] | 12.4 | 61.3 | 
3 | Cc1noc(C)c1C(S[C@@H]1O[C@H](CO)[C@H](O)[C@H](n2cc(-c3cc(F)c(F)c(F)c3)nn2)[C@H]1O)C(C)(C)O (stereo partly drawn) [Example 2.31.121., (2S,3R,4S,5R,6R)-2-((1-(3,5-Dimethylisoxazol-4-yl)-2-hydroxy-2-methylpropyl)thio)-6-(hydroxymethyl)-4-(4-(3,4,5-trifluorophenyl)-1H-1,2,3-triazol-1-yl)tetrahydro-2H-pyran-3,5-diol] | 0.71 | 5.03 | 
4 | Cc1nc(C(S[C@@H]2O[C@H](CO)[C@H](O)[C@H](n3cc(-c4cc(F)c(F)c(F)c4)nn3)[C@H]2O)C(C)(C)O)c(C)o1 (stereo partly drawn) [Example 2.31.122., (2S,3R,4S,5R,6R)-2-((1-(2,5-Dimethyloxazol-4-yl)-2-hydroxy-2-methylpropyl)thio)-6-(hydroxymethyl)-4-(4-(3,4,5-trifluorophenyl)-1H-1,2,3-triazol-1-yl)tetrahydro-2H-pyran-3,5-diol] | 0.88 | 2.14 | 
5 | Cc1nc([C@@H](S[C@@H]2O[C@H](CO)[C@H](O)[C@H](n3cc(-c4cc(F)c(F)c(F)c4)nn3)[C@H]2O)C(C)(C)O)c(C)o1 [Example 2.31.122R., (2S,3R,4S,5R,6R)-2-(((R)-1-(2,5-Dimethyloxazol-4-yl)-2-hydroxy-2-methylpropyl)thio)-6-(hydroxymethyl)-4-(4-(3,4,5-trifluorophenyl)-1H-1,2,3-triazol-1-yl)tetrahydro-2H-pyran-3,5-diol] | 0.37 | 0.67 | 
6 | Cc1nc([C@H](S[C@@H]2O[C@H](CO)[C@H](O)[C@H](n3cc(-c4cc(F)c(F)c(F)c4)nn3)[C@H]2O)C(C)(C)O)c(C)o1 [Example 2.31.122S., (2S,3R,4S,5R,6R)-2-(((S)-1-(2,5-dimethyloxazol-4-yl)-2-hydroxy-2-methylpropyl)thio)-6-(hydroxymethyl)-4-(4-(3,4,5-trifluorophenyl)-1H-1,2,3-triazol-1-yl)tetrahydro-2H-pyran-3,5-diol] | 4.12 | 11.2 | 

More lines, now with the values ahead:

Row | IC50 [1, 3] [µM] | IC50 [2] [µM] | IC50 [1, 4] [µM] | SMILES
7 | 0.5 | 5.15 |  | Cc1cscc1C(S[C@@H]1O[C@H](CO)[C@H](O)[C@H](n2cc(-c3cc(F)c(F)c(F)c3)nn2)[C@H]1O)C(C)(C)O (stereo partly drawn) [Example 2.31.124., (2S,3R,4S,5R,6R)-2-((2-Hydroxy-2-methyl-1-(4-methylthiophen-3-yl)propyl)thio)-6-(hydroxymethyl)-4-(4-(3,4,5-trifluorophenyl)-1H-1,2,3-triazol-1-yl)tetrahydro-2H-pyran-3,5-diol]
8 | 1.22 | 2.83 |  | CCC(O)(CC)[C@H](S[C@@H]1O[C@H](CO)[C@H](O)[C@H](n2cc(-c3cc(F)c(F)c(F)c3)nn2)[C@H]1O)c1conc1C [Example 2.32.120R., (2S,3R,4S,5R,6R)-2-(((R)-2-Ethyl-2-hydroxy-1-(3-methylisoxazol-4-yl)butyl)thio)-6-(hydroxymethyl)-4-(4-(3,4,5-trifluorophenyl)-1H-1,2,3-triazol-1-yl)tetrahydro-2H-pyran-3,5-diol]
9 | 11.3 | 77.4 |  | CCC(O)(CC)[C@@H](S[C@@H]1O[C@H](CO)[C@H](O)[C@H](n2cc(-c3cc(F)c(F)c(F)c3)nn2)[C@H]1O)c1conc1C [Example 2.32.120S., (2S,3R,4S,5R,6R)-2-(((S)-2-Ethyl-2-hydroxy-1-(3-methylisoxazol-4-yl)butyl)thio)-6-(hydroxymethyl)-4-(4-(3,4,5-trifluorophenyl)-1H-1,2,3-triazol-1-yl)tetrahydro-2H-pyran-3,5-diol]
10 |  | 1.8 | 0.25 | OC[C@H]1O[C@@H](SC(c2ccccc2C(F)(F)F)C2(O)CC(F)(F)C2)[C@H](O)[C@@H](n2cc(-c3cc(F)c(F)c(F)c3)nn2)[C@H]1O (stereo partly drawn) [Example 2.33.112., (2S,3R,4S,5R,6R)-2-(((3,3-Difluoro-1-hydroxycyclobutyl)(2-(trifluoromethyl)phenyl)methyl)thio)-6-(hydroxymethyl)-4-(4-(3,4,5-trifluorophenyl)-1H-1,2,3-triazol-1-yl)tetrahydro-2H-pyran-3,5-diol]
11 |  | 0.67 | 0.14 | OC[C@H]1O[C@@H](S[C@H](c2ccccc2C(F)(F)F)C2(O)CC(F)(F)C2)[C@H](O)[C@@H](n2cc(-c3cc(F)c(F)c(F)c3)nn2)[C@H]1O [Example 2.33.112R., (2S,3R,4S,5R,6R)-2-(((R)-(3,3-Difluoro-1-hydroxycyclobutyl)(2-(trifluoromethyl)phenyl)methyl)thio)-6-(hydroxymethyl)-4-(4-(3,4,5-trifluorophenyl)-1H-1,2,3-triazol-1-yl)tetrahydro-2H-pyran-3,5-diol]
12 |  | 21.7 | 11.3 | OC[C@H]1O[C@@H](S[C@@H](c2ccccc2C(F)(F)F)C2(O)CC(F)(F)C2)[C@H](O)[C@@H](n2cc(-c3cc(F)c(F)c(F)c3)nn2)[C@H]1O [Example 2.33.112S.]
13 |  | 11 | 1 | Cc1ccccc1C(S[C@@H]1O[C@H](CO)[C@H](O)[C@H](n2cc(-c3cc(F)c(F)c(F)c3)nn2)[C@H]1O)C1(O)CCC1 (stereo partly drawn) [Example 2.34.102., (2S,3R,4S,5R,6R)-2-(((1-Hydroxycyclobutyl)(o-tolyl)methyl)thio)-6-(hydroxymethyl)-4-(4-(3,4,5-trifluorophenyl)-1H-1,2,3-triazol-1-yl)tetrahydro-2H-pyran-3,5-diol]
14 |  | 6.22 | 0.35 | Cc1ccccc1C(S[C@@H]1O[C@H](CO)[C@H](O)[C@H](n2cc(-c3cc(F)c(F)c(F)c3)nn2)[C@H]1O)C1(O)CC(C)(C)C1 (stereo partly drawn) [Example 2.35.102., (2S,3R,4S,5R,6R)-2-(((1-Hydroxy-3,3-dimethylcyclobutyl)(o-tolyl)methyl)thio)-6-(hydroxymethyl)-4-(4-(3,4,5-trifluorophenyl)-1H-1,2,3-triazol-1-yl)tetrahydro-2H-pyran-3,5-diol]
15 |  | 13.2 | 0.46 | Cc1ccccc1C(S[C@@H]1O[C@H](CO)[C@H](O)[C@H](n2cc(-c3cc(F)c(F)c(F)c3)nn2)[C@H]1O)C1(O)CC(C)C1 (stereo partly drawn) [Example 2.36.102., (2S,3R,4S,5R,6R)-2-(((1-Hydroxy-3-methylcyclobutyl)(o-tolyl)methyl)thio)-6-(hydroxymethyl)-4-(4-(3,4,5-trifluorophenyl)-1H-1,2,3-triazol-1-yl)tetrahydro-2H-pyran-3,5-diol]

From US12404295B2, “(Hetero)aryl-methyl-thio-beta-D-galactopyranoside derivatives” (Idorsia Pharmaceuticals Ltd, priority 2019, dated 2025)
